Key:
[1] = cited from earlier work
[2] = test system: Acne Vulgaris inflammatory lesion
Protocol: An Acne Vulgaris (FIGS. 1a, 1b and 1c) inflammatory lesion on the right cheek of a subject was treated by AIF trihydrate at 0.5% concentration dissolved in water only. The subject applied each 3-4 h the solution as a spray. Pictures were performed in a room with artificial constant light by a Sony Mavica FD95 digital camera at a resolution of 1600×1200 pixels.
(§1) Area of inflammation was measured by image analysis techniques as follows:
Pictures (FIGS. 1a, 1b and 1c) were saved as a BMP file and loaded into Scion Imaging software v. 4.02 (NIH, USA). All three pictures were concomitantly analyzed on the same frame. First, pictures in gray scale were smoothed, manually thresholded, turned into a binary picture and the results transformed to an outline filter. The area of each outlined papule was measured by the software (n=3) and data was further plotted and statistically analyzed by student's t-test in FIG. 2 (Sigmaplot, Jandel, Java).

[3] = test system: Folliculitis inflammatory lesion
Protocol: A Folliculitis (FIGS. 3a, 3b and 3c) inflammatory lesion on the left posterior thigh […] of a subject was treated by AIF trihydrate at 0.5% concentration dissolved in water only. The subject applied each 3-4 h the solution as a spray. Pictures were performed in a room with artificial constant light by a Sony Mavica FD95 digital camera at a resolution of 1600×1200 pixels.
as §1
Pictures (FIGS. 3a, 3b and 3c) were saved as a BMP file and loaded into Scion Imaging software v. 4.02 (NIH, USA). All three pictures were concomitantly analyzed on the same frame. First, pictures in gray scale were smoothed, manually thresholded, turned into a binary picture and the results transformed to an outline filter. The area of each outlined papule was measured by the software (n=3) and data was further plotted and statistically analyzed by student's t-test in FIG. 4 (Sigmaplot, Jandel, Java).

[4] = 0.5% in water only, spray each 3-4 h, right cheek, subject, FIGS. 1a-1c
[5] = 0.5% in water only, spray each 3-4 h, left posterior thigh, subject, FIGS. 3a-3c

| Compound | incidence of severe side effects ([1]; oral, Strauss J S et al, J Am Acad Dermatol, 2001) | side effect: dryness ([1]; systemic retinoid) | side effect: hair loss ([1]; systemic retinoid) | side effect: liver function disorder ([1]; systemic retinoid) | side effect: musculo-skeletal pains ([1]; systemic retinoid) | side effect: photosensitivity ([1]; systemic retinoid) | final resolution of the papule, time [2, 4] | rapid fading of the papule, time from start of treatment [2, 4] | heals the inflamed papule within (area of lesion, image analysis) ([2]; FIG. 2, n=3 area measurements, p<0.01 at 14 h and at 26 h) | final resolution of the papule, time [3, 5] | rapid fading of the papule, time from start of treatment [3, 5] | heals the inflamed papule within (area of lesion, image analysis) ([3]; FIG. 4, n=3 area measurements, p<0.01 at 10 h and p<0.001 at 18 h) |
| --- | --- | --- | --- | --- | --- | --- | --- | --- | --- | --- | --- | --- |
| CC1=C(/C=C/C(C)=C/C=C/C(C)=C\C(=O)O)C(C)(C)CCC1 [isotretinoin] | 35% | 100% | 30% | 5% | 15% | 90% | – | – | – | – | – | – |
| Aluminum fluoride [AIF trihydrate] | – | – | – | – | – | – | 26 h | 14 h | about 24 h | 18 h | 10 h | about 18 h |

Reference: patent US7452556B2, “Compositions for the treatment of pilosebaceous gland inflammations comprising aluminum fluoride” (Medidermis Ltd., priority 2001, dated 2008)
